Laboratory results published in ChEMBL document CHEMBL3885861, “Open TG-GATES”.

Species: Rattus norvegicus
Experiment: Open TG-GATES - Regimen: Single
Type: toxicity, organism-based, Sprague-Dawley
Parameters: regimen Single, gender Male, age 6 weeks
Settings: in vivo, po, 1000 mg/kg, route gavage, dose level High; for APTT / Bas / Eos / Fbg / Hb / Ht / Lym / MCH / MCHC / MCV / Mono / Neu / PT / Plat / RBC / Ret / WBC: tissue Blood; for KIDNEY_L / KIDNEY_R / KIDNEY_TOTAL: tissue Kidney; for LIVER: tissue Liver; for A/G / ALP / ALT / AST / BUN / CRE / Ca / Cl / DBIL / GLC / IP / K / LDH / Na / PL / RALB / TBIL / TC / TG / TP / gamma-GTP: tissue Plasma

CC(S)C(=O)NCC(=O)O (configuration not stated) [TIOPRONIN]
TERMINAL_BW (3 h): 213.5 g
APTT (3 h): 23 s
Bas (3 h): 0%
Eos (3 h): 0.4%
Fbg (3 h): 307.8 mg/dL
Hb (3 h): 13 g/dL
Ht (3 h): 40.2%
Lym (3 h): 75.8%
MCH (3 h): 20.5 pg
MCHC (3 h): 32.3%
MCV (3 h): 63.5 fL
Mono (3 h): 4%
Neu (3 h): 18%
PT (3 h): 17.1 s
Plat (3 h): 120.4 x10_4/uL
RBC (3 h): 633.8 x10_4/ul
Ret (3 h): 8%
WBC (3 h): 75.4 x10_2/uL
KIDNEY_L (3 h): 0.9 g
KIDNEY_R (3 h): 0.9 g
KIDNEY_TOTAL (3 h): 1.8 g
LIVER (3 h): 9.2 g
A/G (3 h): 1.1
ALP (3 h): 1422.8 IU/L
ALT (3 h): 95.4 IU/L
AST (3 h): 90 IU/L
BUN (3 h): 11.2 mg/dL
CRE (3 h): 0.1 mg/dL
Ca (3 h): 10.4 mg/dL
Cl (3 h): 106.8 meq/L
DBIL (3 h): 0 mg/dL
GLC (3 h): 199.4 mg/dL
IP (3 h): 9.1 mg/dL
K (3 h): 4 meq/L
LDH (3 h): 232.2 IU/L
Na (3 h): 141.4 meq/L
PL (3 h): 115.4 mg/dL
RALB (3 h): 2.8 g/dL
TBIL (3 h): 0.008 mg/dL
TC (3 h): 69 mg/dL
TG (3 h): 52.8 mg/dL
TP (3 h): 5.3 g/dL
gamma-GTP (3 h): 1.8 IU/L
TERMINAL_BW (6 h): 211.1 g
APTT (6 h): 23.4 s
Bas (6 h): 0%
Eos (6 h): 0.4%
Fbg (6 h): 291.4 mg/dL
Hb (6 h): 12.9 g/dL
Ht (6 h): 39.5%
Lym (6 h): 76.2%
MCH (6 h): 20.3 pg
MCHC (6 h): 32.6%
MCV (6 h): 62.4 fL
Mono (6 h): 3.2%
Neu (6 h): 18.6%
PT (6 h): 17.6 s
Plat (6 h): 120 x10_4/uL
RBC (6 h): 632.6 x10_4/ul
Ret (6 h): 8.1%
WBC (6 h): 99 x10_2/uL
KIDNEY_L (6 h): 0.9 g
KIDNEY_R (6 h): 0.9 g
KIDNEY_TOTAL (6 h): 1.9 g
LIVER (6 h): 8.2 g
A/G (6 h): 1.2
ALP (6 h): 1452 IU/L
ALT (6 h): 77.2 IU/L
AST (6 h): 78 IU/L
BUN (6 h): 9 mg/dL
CRE (6 h): 0.1 mg/dL
Ca (6 h): 10.3 mg/dL
Cl (6 h): 107 meq/L
DBIL (6 h): 0.002 mg/dL
GLC (6 h): 196 mg/dL
IP (6 h): 9.3 mg/dL
K (6 h): 4.1 meq/L
LDH (6 h): 147.4 IU/L
Na (6 h): 140.4 meq/L
PL (6 h): 100.4 mg/dL
RALB (6 h): 2.8 g/dL
TBIL (6 h): 0.016 mg/dL
TC (6 h): 59.8 mg/dL
TG (6 h): 31.6 mg/dL
TP (6 h): 5.2 g/dL
gamma-GTP (6 h): 1.8 IU/L
TERMINAL_BW (9 h): 211.2 g
APTT (9 h): 23.6 s
Bas (9 h): 0%
Eos (9 h): 0.2%
Fbg (9 h): 271.2 mg/dL
Hb (9 h): 12.6 g/dL
Ht (9 h): 39.2%
Lym (9 h): 74.6%
MCH (9 h): 20.3 pg
MCHC (9 h): 32%
MCV (9 h): 63.2 fL
Mono (9 h): 1.4%
Neu (9 h): 23.4%
PT (9 h): 17.6 s
Plat (9 h): 123.5 x10_4/uL
RBC (9 h): 621.6 x10_4/ul
Ret (9 h): 7.4%
WBC (9 h): 71.9 x10_2/uL
KIDNEY_L (9 h): 1 g
KIDNEY_R (9 h): 1 g
KIDNEY_TOTAL (9 h): 1.9 g
LIVER (9 h): 7.8 g
A/G (9 h): 1.2
ALP (9 h): 1385.8 IU/L
ALT (9 h): 69.4 IU/L
AST (9 h): 80.6 IU/L
BUN (9 h): 9.4 mg/dL
CRE (9 h): 0.1 mg/dL
Ca (9 h): 10.5 mg/dL
Cl (9 h): 106.8 meq/L
DBIL (9 h): 0.006 mg/dL
GLC (9 h): 188.2 mg/dL
IP (9 h): 9.1 mg/dL
K (9 h): 4.3 meq/L
LDH (9 h): 160.4 IU/L
Na (9 h): 140.8 meq/L
PL (9 h): 98.6 mg/dL
RALB (9 h): 2.8 g/dL
TBIL (9 h): 0.018 mg/dL
TC (9 h): 55.6 mg/dL
TG (9 h): 40.4 mg/dL
TP (9 h): 5.2 g/dL
gamma-GTP (9 h): 1.2 IU/L
TERMINAL_BW (24 h): 228 g
APTT (24 h): 22.3 s
Bas (24 h): 0%
Eos (24 h): 1%
Fbg (24 h): 307.2 mg/dL
Hb (24 h): 12.8 g/dL
Ht (24 h): 39.1%
Lym (24 h): 76.8%
MCH (24 h): 20.2 pg
MCHC (24 h): 32.6%
MCV (24 h): 62.1 fL
Mono (24 h): 3.2%
Neu (24 h): 18%
PT (24 h): 16.2 s
Plat (24 h): 115.2 x10_4/uL
RBC (24 h): 630.2 x10_4/ul
Ret (24 h): 7.7%
WBC (24 h): 117.2 x10_2/uL
KIDNEY_L (24 h): 1 g
KIDNEY_R (24 h): 1 g
KIDNEY_TOTAL (24 h): 2 g
LIVER (24 h): 10.2 g
A/G (24 h): 1.2
ALP (24 h): 1503 IU/L
ALT (24 h): 47 IU/L
AST (24 h): 76.6 IU/L
BUN (24 h): 16.2 mg/dL
CRE (24 h): 0.2 mg/dL
Ca (24 h): 10.8 mg/dL
Cl (24 h): 107.4 meq/L
DBIL (24 h): 0 mg/dL
GLC (24 h): 181.6 mg/dL
IP (24 h): 7.4 mg/dL
K (24 h): 4.6 meq/L
LDH (24 h): 176.2 IU/L
Na (24 h): 142.6 meq/L
PL (24 h): 138.8 mg/dL
RALB (24 h): 2.9 g/dL
TBIL (24 h): 0.008 mg/dL
TC (24 h): 76.8 mg/dL
TG (24 h): 117 mg/dL
TP (24 h): 5.4 g/dL
gamma-GTP (24 h): 1.4 IU/L
